# Test results from US20060078504A1, “Sustanined-release pharmaceutical composition for lung administration” (priority 2003, published 2006).
# Assay: Test Example 1: serum theophylline pharmacokinetics after intratracheal administration of solutions A to D to rats
# Assay type: in vivo, Wistar male rats
# Conditions: solution A, intratracheal vs intravenous (femoral vein), rat, FIG. 1
# Method: Wistar male rats (body weight about 220 g) fasted for about 18 hours were used as experimental animals. […] That is, the rats were anesthetized with pentobarbital (about 32 mg/kg) and secured on their back on animal boards, the tracheas were exposed through a longitudinal incision. A section of polyethylene tube (i.d. 1.5 mm, o.d. 2.3 mm) 2.5 cm in length was inserted through the tracheal incision for a distance of 0.6 cm between the forth and fifth tracheal rings caudal to the thyroid cartilage. Each of one hundred microliters of drug solutions A-D was drawn into a glass microsyringe, and then rat was maintained at an angle of 80°. The tip of syringe was inserted through the polyethylene tube to 1-2 mm above the bifurcation of the trachea. Then, the solution was injected over a period of 1-2 sec. About 45 sec after the administration, the rat was positioned at an angle of 10° and the incision in the skin was then closed with suture.
# The theophylline concentrations in the obtained serum were measured by HPLC.
smiles,measurement,value
Cn1c(=O)c2[nH]cnc2n(C)c1=O [theophylline],pulmonary absorption compared with intravenous administration (in words),as quick and effective as achieved by intravenous administration
